Measurements taken from US8507502B2, “Fused bicyclic and tricyclic pyrimidine compounds as tyrosine kinase inhibitors” (National Health Research Institutes, priority 2008, dated 2013).
Where two headings read alike, the source gives them in different places.

Key:
HCC827 cells = assay: HCC827 cell viability, MTS assay; assay type: cell-based; conditions: Homo sapiens, 96-h incubation, read-out: IC50 (concentration which causes 50% of the cell death)
GST-EGFR-KD^WT = target: T1, GST-EGFR-KD^WT (Homo sapiens, UniProt P00533); assay: EGFR kinase assay (Kinase-Glo); assay type: biochemical; conditions: 5 μM ATP, read-out: IC50 (concentration at which activity of 50% of EGFR is inhibited)
T1 construct: 50 ng GST-EGFR-KD^WT proteins; made in house

GST-EGFR-KD^L858R/T790M = target: T2, GST-EGFR-KD^L858R/T790M (Homo sapiens, UniProt P00533, L858R/T790M); assay: Double mutant EGFR kinase assay (Kinase-Glo); assay type: biochemical; conditions: 1 μM ATP, read-out: IC50 (concentration at which activity of 50% of mutant EGFR is inhibited)
T2 construct: residues from 696 to 1022 and with L858R/T790M; made in house; host or cells: Sf9 insect cells (baculovirus)

HCC827 = assay: In vivo anticancer activity, lung cancer xenograft mice (injected with HCC827); design: species or system nude mice; conditions: for tumor size relative to that of the vehicle controls: days 1-5 and 8-12, 22nd day post treatment
Procedure: In vivo efficacy of the compounds of this invention was assessed using lung cancer xenograft mice (injected with HCC827), as described in Cancer Research 2004, 64, 4621-4628.
HCC827 cells were injected via s.c. in nude mice to form lung cancer xenograft mice. Mice bearing tumor with a size of ˜100 mm^3 were randomly assigned to two groups: a vehicle control group (10 mice), and a treatment group (21 mice). Of the treated mice, 21 received Compound 62 at a daily dosage of 5 mg/kg and 15 mg/kg via IV injection through the tail veins for 5 days/week for 2 consecutive weeks (days 1-5 and 8-12).

T2 sequence (P00533 696-1022 T790M/L858R): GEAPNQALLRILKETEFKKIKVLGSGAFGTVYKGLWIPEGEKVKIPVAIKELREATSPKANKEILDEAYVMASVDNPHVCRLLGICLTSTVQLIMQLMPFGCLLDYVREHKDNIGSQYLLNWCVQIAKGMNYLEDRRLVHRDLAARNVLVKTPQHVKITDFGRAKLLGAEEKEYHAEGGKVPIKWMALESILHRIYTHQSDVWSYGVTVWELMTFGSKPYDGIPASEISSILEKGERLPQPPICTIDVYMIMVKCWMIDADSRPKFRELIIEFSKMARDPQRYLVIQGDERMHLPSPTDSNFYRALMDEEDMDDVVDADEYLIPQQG
T1 sequence (P00533 712-979 limits assumed): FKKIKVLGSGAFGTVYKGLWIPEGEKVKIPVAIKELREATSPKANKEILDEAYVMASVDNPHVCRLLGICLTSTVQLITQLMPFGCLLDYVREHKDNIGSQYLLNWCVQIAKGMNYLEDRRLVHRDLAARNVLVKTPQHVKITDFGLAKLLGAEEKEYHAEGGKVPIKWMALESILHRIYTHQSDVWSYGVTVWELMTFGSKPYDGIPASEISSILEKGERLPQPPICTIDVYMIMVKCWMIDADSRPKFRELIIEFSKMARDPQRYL

| SMILES | IC50 (GST-EGFR-KD^WT) | IC50 (GST-EGFR-KD^L858R/T790M) | IC50 (HCC827 cells) | IC50 (GST-EGFR-KD^WT; range given in mixed units) | tumor size relative to that of the vehicle controls (HCC827; 5 mg/kg daily IV) | tumor size relative to that of the vehicle controls (HCC827; 15 mg/kg daily IV) | tumor growth suppression (HCC827; 5 and 15 mg/kg IV, p<0.05) |
| --- | --- | --- | --- | --- | --- | --- | --- |
| CC[C@@H](Nc1ncnc2sc3c(c12)CCN(C(=O)/C=C/CN(CC)CC)C3)c1ccccc1 [Compound 191] | < 0.059 µM | 0.5 to 2.5 µM | 0.001 to 0.099 µM |  |  |  |  |
| C=CC(=O)N1CCc2c(sc3ncnc(NC(CCO)c4ccccc4)c23)C1 (stereo not drawn) [Compound 188] |  | 0.5 to 2.5 µM | 0.301 to 0.999 µM | 0.101 to 0.9 µM |  |  |  |
| CCN(CC)C/C=C/C(=O)N1CCc2c(sc3ncnc(N[C@H](CO)c4ccccc4)c23)C1 [Compound 75] | < 0.059 µM | 0.5 to 2.5 µM | 0.001 to 0.099 µM |  |  |  |  |
| CN(C)C/C=C/C(=O)N1CCc2c(sc3ncnc(N[C@H](COCc4ccccc4F)c4ccccc4)c23)C1 [Compound 232] | < 0.059 µM | 0.5 to 2.5 µM | 0.001 to 0.099 µM |  |  |  |  |
| C=CC(=O)N1CCc2c(sc3ncnc(N[C@H](CC)c4ccccc4)c23)C1 [Compound 106] | < 0.059 µM | 0.5 to 2.5 µM | 0.001 to 0.099 µM |  |  |  |  |
| C=CC(=O)Nc1cccc(-c2c(-c3ccccc3)oc3ncnc(N[C@H](C)c4ccccc4)c23)c1 [Compound 239] |  | 0.5 to 2.5 µM | 0.001 to 0.099 µM | 0.101 to 0.9 µM |  |  |  |
| CN1CCN(C/C=C/C(=O)N2CCc3c(sc4ncnc(N[C@H](CO)c5ccccc5)c34)C2)CC1 [Compound 67] | < 0.059 µM | 0.5 to 2.5 µM | 0.001 to 0.099 µM |  |  |  |  |
| CN(C)C/C=C/C(=O)N1CCc2c(sc3ncnc(N[C@H](COCc4ccccc4)c4ccccc4)c23)C1 [Compound 198] | < 0.059 µM | 0.5 to 2.5 µM | 0.001 to 0.099 µM |  |  |  |  |
| O=C(/C=C/CN1CCCCC1)N1CCc2c(sc3ncnc(N[C@H](CO)c4ccccc4)c23)C1 [Compound 65] | < 0.059 µM | 0.5 to 2.5 µM | 0.001 to 0.099 µM |  |  |  |  |
| CNC/C=C/C(=O)N1CCc2c(sc3ncnc(N[C@H](C)c4ccccc4)c23)C1 [Compound 205] | < 0.059 µM | 0.5 to 2.5 µM | 0.001 to 0.099 µM |  |  |  |  |
| C[C@@H](Nc1ncnc2sc3c(c12)CCN(C(=O)/C=C/CN(CCO)CCO)C3)c1ccccc1 [Compound 215] | < 0.059 µM | 0.5 to 2.5 µM | 0.001 to 0.099 µM |  |  |  |  |
| CN(C)C/C=C/C(=O)N1CCc2c(sc3ncnc(N[C@H](COCc4ccccn4)c4ccccc4)c23)C1 [Compound 203] | < 0.059 µM | 0.5 to 2.5 µM | 0.001 to 0.099 µM |  |  |  |  |
| O=C(/C=C/CN1CCOCC1)N1CCc2c(sc3ncnc(N[C@H](CO)c4ccccc4)c23)C1 [Compound 66] | < 0.059 µM | 0.5 to 2.5 µM | 0.001 to 0.099 µM |  |  |  |  |
| C=CC(=O)N1CCc2c(sc3ncnc(N[C@H](CO)Cc4ccccc4)c23)C1 [Compound 193] | < 0.059 µM | 0.5 to 2.5 µM | 0.301 to 0.999 µM |  |  |  |  |
| CCN(CC)C/C=C/C(=O)N1CCc2c(sc3ncnc(N[C@H](C)c4ccccc4)c23)C1 [Compound 190] | < 0.059 µM | 0.5 to 2.5 µM | 0.001 to 0.099 µM |  |  |  |  |

Second part, led by results:

| IC50 (GST-EGFR-KD^WT) | IC50 (GST-EGFR-KD^L858R/T790M) | SMILES | IC50 (HCC827 cells) | IC50 (GST-EGFR-KD^WT; range given in mixed units) | tumor size relative to that of the vehicle controls (HCC827; 5 mg/kg daily IV) | tumor size relative to that of the vehicle controls (HCC827; 15 mg/kg daily IV) | tumor growth suppression (HCC827; 5 and 15 mg/kg IV, p<0.05) |
| --- | --- | --- | --- | --- | --- | --- | --- |
| < 0.059 µM | 0.5 to 2.5 µM | CC#CC(=O)Nc1cccc(-c2c(-c3ccccc3)oc3ncnc(N[C@H](CO)c4ccccc4)c23)c1 [Compound 241] | 0.001 to 0.099 µM |  |  |  |  |
| < 0.059 µM | 0.5 to 2.5 µM | C[C@@H](Nc1ncnc2sc3c(c12)CCN(C(=O)/C=C/CNC1CC1)C3)c1ccccc1 [Compound 211] | 0.001 to 0.099 µM |  |  |  |  |
| < 0.059 µM | 0.01 to 0.499 µM | C=CC(=O)N1CCc2c(sc3ncnc(N[C@H](COCc4cccc([N+](=O)[O-])c4)c4ccccc4)c23)C1 [Compound 226] | 0.001 to 0.099 µM |  |  |  |  |
| < 0.059 µM | 0.01 to 0.499 µM | C=CC(=O)N1CCc2c(sc3ncnc(N[C@H](COCc4cccc(C)c4)c4ccccc4)c23)C1 [Compound 227] | 0.001 to 0.099 µM |  |  |  |  |
| < 0.059 µM | 0.01 to 0.499 µM | C=CC(=O)N1CCc2c(sc3ncnc(N[C@H](COCc4ccccc4)c4ccccc4)c23)C1 [Compound 195] | 0.001 to 0.099 µM |  |  |  |  |
| < 0.059 µM | 0.01 to 0.499 µM | CN(C)C/C=C/C(=O)N1CCc2c(sc3ncnc(N[C@H](COCc4cccc(F)c4)c4ccccc4)c23)C1 [Compound 210] | 0.001 to 0.099 µM |  |  |  |  |
| < 0.059 µM | 0.01 to 0.499 µM | C=CC(=O)N1CCc2c(sc3ncnc(N[C@H](CO)c4ccccc4)c23)C1 [Compound 12, 1-[4-(2-hydroxy-1-phenyl-ethylamino)-5,8-dihydro-6H-9-thia-1,3,7-triaza-fluoren-7-yl]-propenone] | 0.001 to 0.099 µM |  |  |  |  |
| < 0.059 µM | 0.01 to 0.499 µM | C=CC(=O)N1CCc2c(sc3ncnc(N[C@H](COCc4cccc(F)c4)c4ccccc4)c23)C1 [Compound 200] | 0.001 to 0.099 µM |  |  |  |  |
| < 0.059 µM | 0.01 to 0.499 µM | C=CC(=O)N1CCc2c(sc3ncnc(N[C@H](COCc4cccc(OC)c4)c4ccccc4)c23)C1 [Compound 223] | 0.001 to 0.099 µM |  |  |  |  |
| < 0.059 µM | 0.01 to 0.499 µM | C=CC(=O)N1CCc2c(sc3ncnc(N[C@H](COC)c4ccccc4)c23)C1 [Compound 185] | 0.001 to 0.099 µM |  |  |  |  |
| < 0.059 µM | 0.01 to 0.499 µM | C=CC(=O)N1CCc2c(sc3ncnc(N[C@H](CCO)c4ccccc4)c23)C1 [Compound 176] | 0.001 to 0.099 µM |  |  |  |  |
| < 0.059 µM | 0.01 to 0.499 µM | C=CC(=O)N1CCc2c(sc3ncnc(N[C@H](COCc4ccc(C(F)(F)F)cc4)c4ccccc4)c23)C1 [Compound 202] | 0.1 to 0.3 µM |  |  |  |  |
| < 0.059 µM | 0.01 to 0.499 µM | CN(C)C/C=C/C(=O)N1CCc2c(sc3ncnc(Nc4ccc(F)c(Cl)c4)c23)C1 [Compound 187] | 0.001 to 0.099 µM |  |  |  |  |
| < 0.059 µM | 0.01 to 0.499 µM | CN(C)C/C=C/C(=O)N1CCc2c(sc3ncnc(N[C@H](CO)c4ccccc4)c23)C1 [Compound 62] | 0.001 to 0.099 µM |  | 39% | 23% | suppressed tumor growth significantly |
